Legend:
[1] = biological target: human recombinant ATX (Homo sapiens, UniProt Q13822); test: Enzyme inhibition test (choline release from LPC, Amplex UltraRed fluorescence); format: biochemical; details: 200 μM LPC substrate, 1 hr at room temperature, read-out: Experimental Example 1 human ATX IC50
Description: [Enzyme Inhibition Test Method]
A mixture (10 μL) of substrate and a set of choline quantification reagents (200 μM LPC (1-Oleoyl-sn-glycero-3-phosphocholine Sigma #L1881), 25 μM Amplex UltraRed reagent (Invitrogen), 0.1 U/mL Peroxidase (TOYOBO), 1 U/mL Choline oxidase (TOYOBO)), prepared with assay buffer (50 mM Tris (pH 8.0), 140 mM NaCl, 5 mM KCl, 1 mM CaCl2, 1 mM MgCl2, 0.1% BSA (Albumin from bovine serum, SIGMA), 0.0025% Triton X-100), enzyme (0.4 ng/μL human recombinant ATX) (10 μL), compound-containing solution (100 nL) were dispensed to a 384-well plate, incubated at room temperature for 1 hr and the fluorescence (Ex. 525 nm/Em. 598 nm) was measured. As the standard, choline chloride was used. With a blank free of enzyme was taken as inhibitory rate 100%, and a control free of inhibitor as inhibitory rate 0%, the inhibitory rate was calculated, and IC50 value was calculated from the inhibitory activity percentage at each concentration.

[2] = biological target: T1, ATX activity in plasma (Rattus norvegicus, UniProt Q64610); test: Measurement of ATX activity in plasma (ex vivo), rat single administration test; set-up: species or system male Wistar rat
T1 construct: from tissue; host or cells: plasma of male Wistar rats after oral dosing
Description: [Measurement of ATX Activity in Plasma (Ex Vivo)]
A compound administration solution prepared by wet pulverization in a mixer mill (type: MM400) for 10 min and adjusting to a given concentration with 0.5% aqueous carboxymethylcellulose solution was orally administered to male Wistar rat (5-week-old when used) at 5 mL/kg. Blood samples were collected from the cervical vein over time at 8 to 24 hr after administration. The blood was heparin-treated using a micro blood collection tube Capiject (CJ-AL, TERUMO CORPORATION), and the plasma was separated by centrifugation (4° C., 12,000 rpm, for 2 min), and preserved at −80° C. The rats after blood sampling were euthanized by exsanguination from the caudal vena cava under isoflurane inhalation anesthesia. The measurement of ATX activity in plasma was evaluated using the concentration of choline in the plasma, which was liberated from lysophosphatidylcholine (substrate of ATX) by the lysophospholipase D activity of ATX, as an index. An equal amount of 2× assay buffer (200 mM Tris-HCl pH9.0, 10 mM MgCl2, 1 M NaCl, 0.1% Triton X-100) is added to plasma (12 μL) and reacted at 37° C. for 6 hr. The reaction mixture (10 μL) after reaction for 6 hr and 45 μL of reagent R^1 solution (100 mM Tris-HCl pH 8.0, 0.5 mM TOOS, 10 U/mL peroxidase, 0.01% Triton X-100) were added and blended and absorbance at 550-700 nm was measured and used as a prevalue. As the standard, choline chloride was used. 1 mM choline chloride was diluted with 2× assay buffer up to 7 steps in 2-fold serial dilution, R^1 solution was treated similarly and the absorbance was measured. Furthermore, 15 μL of reagent R^2 solution (100 mM Tris-HCl pH 8.0, 1 mM 4-aminoantipyrine, 10 U/mL choline oxidase, 0.01% Triton X-100) was added, and the mixture was reacted at room temperature for 10 min, and absorbance at 550-700 nm was measured. The choline concentration per reaction time was calculated from the difference between the absorbance after R^2 solution addition and prevalue measured before R^2 addition and used as ATX activity value. inhibitory activity (%)=100×{1−[choline concentration (μM) of test substance administration group/choline concentration (μM) of solvent control group]} <calculating formula>

Row | IC50 [1] [nM] | Experimental Example 2 Rat single administration test (inhibitory activity (%) 8 hr after 1 mg/kg oral administration) [2] [%] | SMILES
1 | 9 | 72 | COc1ccc(-c2cncc(OCc3ccc(OC(F)(F)F)cc3)c2)cc1[C@@H]1C[C@H]1C(=O)O (relative stereo) [Example 2, trans-2-[2-methoxy-5-(5-{[4-(trifluoromethoxy)benzyl]oxy}pyridin-3-yl)phenyl]cyclopropanecarboxylic Acid]
2 | 3 | 71 | O=C(O)c1cccc(C2CN(c3cncc(OC[C@H]4CC[C@H](C(F)(F)F)CC4)c3)CCO2)c1 (relative stereo) [Example 13, 3-[4-(5-{[trans-4-(trifluoromethyl)cyclohexyl]methoxy}pyridin-3-yl)morpholin-2-yl]benzoic Acid]
3 | 1 | 94 | COc1ccc(-c2cnnc(OC[C@H]3CC[C@H](C(F)(F)F)CC3)c2)cc1[C@H]1C[C@@H]1C(=O)O [Example 1-1, (1S,2S)-2-[2-methoxy-5-(6-{[trans-4-(trifluoromethyl)cyclohexyl]methoxy}pyridazin-4-yl)phenyl]cyclopropanecarboxylic Acid]
4 | 5 | 93 | COc1ccc(-c2cnnc(OC[C@H]3CC[C@H](C(F)(F)F)CC3)c2)cc1[C@@H]1C[C@H]1C(=O)O [Example 1-2, (1R,2R)-2-[2-methoxy-5-(6-{[trans-4-(trifluoromethyl)cyclohexyl]methoxy}pyridazin-4-yl)phenyl]cyclopropanecarboxylic Acid]
5 | 4 | 71 | COc1ccc(-c2cncc(CCc3ccc(OC(F)(F)F)cc3)c2)nc1[C@H]1C[C@@H]1C(=O)O [Example 6, (1S,2S)-2-(5-methoxy-5′-{2-[4-(trifluoromethoxy)phenyl]ethyl}-2,3′-bipyridin-6-yl)cyclopropanecarboxylic Acid]
6 | 2 | 92 | O=C(O)[C@H]1C[C@@H]1c1cccc(-c2cncc(OC[C@H]3CC[C@H](C(F)(F)F)CC3)c2)n1 [Example 8-1, (1S,2S)-2-(5′-{[trans-4-(trifluoromethyl)cyclohexyl]methoxy}-2,3′-bipyridin-6-yl)cyclopropanecarboxylic Acid]
7 | 20 | 47 | O=C(O)[C@@H]1C[C@H]1c1cccc(-c2cncc(OC[C@H]3CC[C@H](C(F)(F)F)CC3)c2)n1 [Example 8-2, (1R,2R)-2-(5′-{[trans-4-(trifluoromethyl)cyclohexyl]methoxy}-2,3′-bipyridin-6-yl)cyclopropanecarboxylic Acid]
8 | 2 | 94 | O=C(O)[C@H]1C[C@@H]1c1cc(-c2cncc(OC[C@H]3CC[C@H](C(F)(F)F)CC3)c2)ccn1 [Example 9-1, (1S,2S)-2-(5-{[trans-4-(trifluoromethyl)cyclohexyl]methoxy}-3,4′-bipyridin-2′-yl)cyclopropanecarboxylic Acid]
9 | 3 | 94 | O=C(O)[C@@H]1C[C@H]1c1cc(-c2cncc(OC[C@H]3CC[C@H](C(F)(F)F)CC3)c2)ccn1 [Example 9-2, (1R,2R)-2-(5-{[trans-4-(trifluoromethyl)cyclohexyl]methoxy}-3,4′-bipyridin-2′-yl)cyclopropanecarboxylic Acid]
10 | 1 | 76 | O=C(O)c1ccc2c(c1)CCN2c1cncc(OC[C@H]2CC[C@H](C(F)(F)F)CC2)c1 [Example 12, 1-(5-{[trans-4-(trifluoromethyl)cyclohexyl]methoxy}pyridin-3-yl)-2,3-dihydro-1H-indole-5-carboxylic Acid]
11 | 12 | 92 | O=C(O)CC[C@H]1CN(c2cncc(OCc3ccc(OC(F)(F)F)cc3)c2)CCO1 [Example 14, 3-[(2S)-4-(5-{[4-(trifluoromethoxy)benzyl]oxy}pyridin-3-yl)morpholin-2-yl]propanoic Acid]
12 | 42 | 75 | O=C(O)CC[C@H]1CN(c2cncc(OCc3ccc(C(F)(F)F)cc3)c2)CCO1 [Example 15, 3-[(2S)-4-(5-{[4-(trifluoromethyl)benzyl]oxy}pyridin-3-yl)morpholin-2-yl]propanoic Acid]
13 | 104 |  | O=C(O)CC[C@H]1CN(c2cncc(OCC3CCCCC3)c2)CCO1 [Example 71]
14 | 8 |  | O=C(O)CC[C@H]1CN(c2cncc(OCC3CCC4(CCC4)CC3)c2)CCO1 [Example 72]
15 | 9 |  | O=C(O)CC[C@H]1CN(c2cncc(OCC3CCC4(CC3)CC4)c2)CCO1 [Example 73]
16 | 10 |  | CC1(C)CCC(COc2cncc(N3CCO[C@@H](CCC(=O)O)C3)c2)CC1 [Example 74]
17 | 68 |  | O=C(O)CC[C@H]1CN(c2cncc(OCC3CCC(F)(F)CC3)c2)CCO1 [Example 75]
18 | 78 |  | O=C(O)CC[C@H]1CN(c2cncc(OC[C@H]3CC[C@@H](C(F)(F)F)CC3)c2)CCO1 [Example 76]
19 | 381 |  | O=C(O)CC[C@H]1CN(c2cncc(OCc3ccc(F)cc3)c2)CCO1 [Example 77]

Row | IC50 [1] [nM] | Experimental Example 2 Rat single administration test (inhibitory activity (%) 8 hr after 1 mg/kg oral administration) [2] [%] | SMILES
20 | 91 |  | O=C(O)CC[C@H]1CN(c2cncc(OCc3ccc(Cl)cc3)c2)CCO1 [Example 78]
21 | 189 |  | O=C(O)CC[C@H]1CN(c2cncc(OCc3cccc(Cl)c3)c2)CCO1 [Example 79]
22 | 493 |  | O=C(O)CC[C@H]1CN(c2cncc(OCc3ccccc3Cl)c2)CCO1 [Example 80]
23 | 12 |  | O=C(O)CC[C@H]1CN(c2cncc(OCc3ccc(SC(F)(F)F)cc3)c2)CCO1 [Example 81]
24 | 29 |  | O=C(O)CC[C@H]1CN(c2cncc(OCc3ccc(OC(F)(F)F)c(Cl)c3)c2)CCO1 [Example 85]
25 | 129 |  | O=C(O)CC[C@H]1CN(c2cncc(COc3ccc(C(F)(F)F)cc3)c2)CCO1 [Example 86]
26 | 133 |  | C[C@H]1CN(c2cncc(OCc3ccc(OC(F)(F)F)cc3)c2)C[C@H](CCC(=O)O)O1 [Example 88]
27 | 9 |  | CC1(C(=O)O)CC1[C@H]1CN(c2cnnc(OC[C@H]3CC[C@H](C(F)(F)F)CC3)c2)CCO1 (stereo partly shown) [Example 89]
28 | 419 |  | O=C(O)C1CN(c2cncc(OCc3ccc(OC(F)(F)F)cc3)c2)CCO1 (stereo not shown) [Example 90]
29 | 24 |  | O=C(O)CCC1CCCN(c2cncc(OCc3ccc(OC(F)(F)F)cc3)c2)C1 (stereo not shown) [Example 91]
30 | 32 |  | O=C(O)CCCC1CN(c2cncc(OCc3ccc(OC(F)(F)F)cc3)c2)CCO1 (stereo not shown) [Example 94]
31 | 36 |  | O=C(O)CCCC1COCCN1c1cncc(OCc2ccc(OC(F)(F)F)cc2)c1 (stereo not shown) [Example 95]
32 | 19 |  | O=C(O)COC[C@@H]1CCCN1c1cncc(OCc2ccc(OC(F)(F)F)cc2)c1 [Example 96]
33 | 378 |  | O=C(O)CC1CCN(c2cncc(OCc3ccc(OC(F)(F)F)cc3)c2)C1 (stereo not shown) [Example 97]
34 | 120 |  | O=C(O)CCC1CCN(c2cncc(OCc3ccc(OC(F)(F)F)cc3)c2)C1 (stereo not shown) [Example 98]
35 | 50 |  | O=C(O)CCCC1CCN(c2cncc(OCc3ccc(OC(F)(F)F)cc3)c2)C1 (stereo not shown) [Example 99]
36 | 204 |  | O=C(O)CCC1CCCN1c1cncc(OCc2ccc(OC(F)(F)F)cc2)c1 (stereo not shown) [Example 100]
37 | 113 |  | O=C(O)/C=C/C1CCCN1c1cncc(OCc2ccc(OC(F)(F)F)cc2)c1 (stereo not shown) [Example 101]

Reference: patent US11958812B2, “3, 5-disubstituted pyridine and 3, 5-disubstituted pyridazine derivatives and pharmaceutical use of same” (MITSUBISHI TANABE PHARMA CORPORATION, priority 2018, dated 2024)
